The experiment concerns the target SARS-CoV-2 3CLpro (Severe acute respiratory syndrome coronavirus 2, UniProt P0DTD1). Kind of experiment: biochemical. It is filed as biochemical. Further details: Replicate_1 / Replicate_2 / mean / mean (LOPAC_screen_w_protease): unit not given here. The conditions noted are these: for inhibition at 5 µM: 4 h.
[1] abbreviates: sheet LOPAC_screen_w_protease, primary screen with protease, mean of two replicates.
[2] abbreviates: sheet LOPAC_screen_w_protease, primary screen with protease, replicate 1.
Setting [3] is: sheet LOPAC_screen_w_protease, primary screen with protease, replicate 2.
The mark [4] stands for this setting: LOPAC1280 primary screen with protease, 5 µM compound, mean of the two replicates.
Setting [5] is: LOPAC1280 primary screen with protease, 5 µM compound, replicate 1.
Where [6] appears, read: LOPAC1280 primary screen with protease, 5 µM compound, replicate 2.
Setting [7] is: sheet LOPAC_screen_w_protease, LOPAC1280 primary screen at 5 µM, with protease, mean of the two replicates.
[8] abbreviates: sheet LOPAC_screen_w_protease, LOPAC1280 primary screen at 5 µM, with protease, replicate 1.
The mark [9] stands for this setting: sheet LOPAC_screen_w_protease, LOPAC1280 primary screen at 5 µM, with protease, replicate 2.
Where [10] appears, read: sheet LOPAC_screen_w_protease, primary screen with protease, compound at 5 µM, mean of two replicates.
[11] abbreviates: sheet LOPAC_screen_w_protease, primary screen with protease, compound at 5 µM, replicate 1.
Setting [12] is: sheet LOPAC_screen_w_protease, primary screen with protease, compound at 5 µM, replicate 2.
The mark [13] stands for this setting: sheet LOPAC_screen_w_protease, primary screen of LOPAC1280 at 5 µM with protease, mean of the two replicates.
Where [14] appears, read: sheet LOPAC_screen_w_protease, primary screen of LOPAC1280 at 5 µM with protease, replicate 1.
Where [15] appears, read: sheet LOPAC_screen_w_protease, primary screen of LOPAC1280 at 5 µM with protease, replicate 2.
Setting [16] is: sheet LOPAC_screen_w_protease, primary screen with protease, compound at 5 µM, mean of two replicates, read-out: mean.
Where [17] appears, read: sheet LOPAC_screen_w_protease, primary screen with protease, compound at 5 µM, replicate 1, read-out: Replicate_1.
[18] abbreviates: sheet LOPAC_screen_w_protease, primary screen with protease, compound at 5 µM, replicate 2, read-out: Replicate_2.
Setting [19] is: read-out: Replicate_1 (LOPAC_screen_w_protease).
[20] abbreviates: read-out: Replicate_2 (LOPAC_screen_w_protease).
The mark [21] stands for this setting: LOPAC1280 primary screen with protease, 5 µM compound, replicate 1, read-out: Replicate_1 (LOPAC_screen_w_protease).
Setting [22] is: LOPAC1280 primary screen with protease, 5 µM compound, replicate 2, read-out: Replicate_2 (LOPAC_screen_w_protease).
The mark [23] stands for this setting: LOPAC1280 primary screen with protease, 5 µM compound, mean of two replicates.
Setting [24] is: sheet LOPAC_screen_w_protease, LOPAC1280 primary screen with protease, 5 µM compound, mean of the two replicates, read-out: mean.
[25] abbreviates: sheet LOPAC_screen_w_protease, LOPAC1280 primary screen with protease, 5 µM compound, replicate 1, read-out: Replicate_1.
Where [26] appears, read: sheet LOPAC_screen_w_protease, LOPAC1280 primary screen with protease, 5 µM compound, replicate 2, read-out: Replicate_2.

Structures can show the parent of a compound that is named as a salt. Where two headings read alike, the source gives them in different places.

The source of these data is publication PMC7587356, “High-Throughput Screening for Inhibitors of the SARS-CoV-2 Protease Using a FRET-Biosensor” (Molecules, 2020).

For `N#CC(C#N)=C(N)/C(C#N)=C/c1ccc(O)cc1` [Tyrphostin AG 112], the mean under setting [1] is 2.497. Further, under setting [2], the Replicate_1 came to 2.949. For the same compound, the Replicate_2 under setting [3] turned out to be 2.046.

Regarding `C[N+](C)(C)CCCCCC[N+](C)(C)C.[Cl-].[Cl-]` [Hexamethonium dichloride], the “mean (LOPAC_screen_w_protease)” value under setting [4] stood at 1.868. Further, the “Replicate_1 (LOPAC_screen_w_protease)” value under setting [5] stood at 3.928. Under setting [6], the “Replicate_2 (LOPAC_screen_w_protease)” value is listed as -0.1911.

For `CCCN1CCO[C@@H]2c3cc(O)ccc3OC[C@H]21.Cl` [S(+)-PD 128,907 hydrochloride], the mean under setting [7] turned out to be 0.4405. Under setting [8], this compound had a Replicate_1 of 0.5719. Further, the Replicate_2 under setting [9] is listed as 0.3091.

Regarding `CNCCCC1c2ccccc2C=Cc2ccccc21` [Protriptyline hydrochloride], the inhibition at 5 µM (read-out: Replicate_1) amounted to 1.19%, the inhibition at 5 µM (read-out: Replicate_2) was -0.325% and the inhibition at 5 µM (read-out: mean) is 0.431%.

As to `Oc1ccc(C2CNCCc3c2cc(O)c(O)c3Cl)cc1` (stereo not drawn) [Fenoldopam bromide], the inhibition at 5 µM reads like this: (read-out: Replicate_1 (LOPAC screen with protease)) 29.5%; (read-out: Replicate_2 (LOPAC screen with protease)) 23%; (read-out: mean (LOPAC screen with protease)) 26.2%.

As to `COc1ccccc1NC(=O)Nc1nc(-c2cccnc2)nc2ccccc12` [VUF 5574], under setting [1], the mean came to 2.164. For the same compound, the Replicate_1 under setting [2] was found to be 1.496. Also, the Replicate_2 under setting [3] is given as 2.8319.

As for `Cl.O=S(=O)(c1cccc2c(Cl)cccc12)N1CCCNCC1` [ML-9], the Replicate_1 is 1.4227, the Replicate_2 came to 4.79 and the mean is 3.1064.

On to `CNC(=O)[C@H]1O[C@@H](n2cnc3c(NCc4ccc(N)cc4)ncnc32)[C@H](O)[C@@H]1O` [AB-MECA], for which the mean under setting [10] is on record as 2.5809. The Replicate_1 under setting [11] came to 2.895. This compound yielded a Replicate_2 under setting [12] of 2.266.

In the case of `Cn1cnc2c(NC3CCCC3)ncnc21` [N6-Cyclopentyl-9-methyladenine], the mean under setting [13] stood at 3.328. For the same compound, the Replicate_1 under setting [14] is 3.176. The compound further registered a Replicate_2 under setting [15] of 3.4795.

Regarding `O=C(O)c1cc([N+](=O)[O-])ccc1NCCCc1ccccc1`, the “Replicate_1 (LOPAC screen with protease)” value is 5.784, the “Replicate_2 (LOPAC screen with protease)” value was 7.243 and the “mean (LOPAC screen with protease)” value stood at 6.5136.

`O=c1n(CCCN2CCN(c3cccc(Cl)c3)CC2)nc2ccccn12` [Trazodone hydrochloride]: the inhibition at 5 µM by setting is: under setting [16], 2.86%; under setting [17], 3.03%; under setting [18], 2.69%.

For `CN(C)CCC=C1c2ccccc2C=Cc2ccccc21` [Cyclobenzaprine hydrochloride], the “mean (LOPAC_screen_w_protease)” value is reported as 2.047. Also, under setting [19], the inhibition at 5 µM stood at 3.03%. The inhibition at 5 µM under setting [20] was 1.06%.

`Cc1ncc(CNC(=O)N(CCCl)N=O)c(N)n1` [Nimustine hydrochloride]: the inhibition at 5 µM is, setting by setting: (sheet LOPAC_screen_w_protease, primary screen of LOPAC1280 at 5 µM with protease, mean of the two replicates, read-out: mean) 3.43%; (sheet LOPAC_screen_w_protease, primary screen of LOPAC1280 at 5 µM with protease, replicate 1, read-out: Replicate_1) 3.89%; (sheet LOPAC_screen_w_protease, primary screen of LOPAC1280 at 5 µM with protease, replicate 2, read-out: Replicate_2) 2.97%.

With `COC(=O)[C@H]1[C@H]2C[C@H]3c4[nH]c5ccccc5c4CCN3C[C@H]2CC[C@@H]1O` [Rauwolscine hydrochloride], the inhibition at 5 µM runs as follows: under setting [16], 3.1%; under setting [17], 3.55%; under setting [18], 2.65%.

In the case of `CCCCC[C@H](CC(=O)NO)C(=O)N[C@H](C(=O)N1CCC[C@H]1CO)C(C)C` [Actinonin], the inhibition at 5 µM reads like this: under setting [21], 1.42%; under setting [22], 1.48%. Moreover, the “mean (LOPAC_screen_w_protease)” value under setting [23] was found to be 1.4498.

For the compound `CN(C(=O)Cc1ccc(Cl)c(Cl)c1)C(CN1CCCC1)c1cccc(OCC(=O)O)c1.Cl` (stereo not drawn) [ICI 204,448 hydrochloride], the “mean (LOPAC_screen_w_protease)” value under setting [4] is recorded as 1.925. Under setting [5], the “Replicate_1 (LOPAC_screen_w_protease)” value is on record as 3.897. In addition, the “Replicate_2 (LOPAC_screen_w_protease)” value under setting [6] is recorded as -0.04714.

`CC(Oc1ccc(Oc2cnc3ccc(Cl)cc3n2)cc1)C(=O)O` (stereo not drawn) [XK469] came in with a mean (sheet LOPAC_screen_w_protease, LOPAC1280 at 5 µM, mean of two replicates) of 1.32. Besides, where the note is “sheet LOPAC_screen_w_protease, LOPAC1280 at 5 µM, replicate 1”, the Replicate_1 turned out to be 0.4248. For the same compound, for the setting “sheet LOPAC_screen_w_protease, LOPAC1280 at 5 µM, replicate 2”, the Replicate_2 worked out at 2.215.

Turning to `CN1C(=O)CCS(=O)(=O)C1c1ccc(Cl)cc1` (stereo not drawn) [Chlormezanone], the inhibition at 5 µM was 0.463% (sheet LOPAC_screen_w_protease, LOPAC1280 primary screen at 5 µM, with protease, mean of the two replicates, read-out: mean); 2.15% (sheet LOPAC_screen_w_protease, LOPAC1280 primary screen at 5 µM, with protease, replicate 1, read-out: Replicate_1); -1.22% (sheet LOPAC_screen_w_protease, LOPAC1280 primary screen at 5 µM, with protease, replicate 2, read-out: Replicate_2).

For the compound `CSc1ccc2c(c1)N(CCC1CCCCN1C)c1ccccc1S2` (stereo not drawn) [Thioridazine hydrochloride], the inhibition at 5 µM by setting is: (read-out: Replicate_1) 0.0861%; (read-out: Replicate_2) 0.816%; (read-out: mean) 0.451%.

With `Cl.NC[C@@H]1O[C@H](C23CC4CC(CC(C4)C2)C3)Cc2c1ccc(O)c2O` [A-77636 hydrochloride], the “mean (LOPAC screen with protease)” value (sheet LOPAC_screen_w_protease, primary screen at 5 µM, mean of two replicates) amounted to 61.6634. The “Replicate_1 (LOPAC screen with protease)” value (sheet LOPAC_screen_w_protease, primary screen at 5 µM, replicate 1) is 62.3885. The “Replicate_2 (LOPAC screen with protease)” value (sheet LOPAC_screen_w_protease, primary screen at 5 µM, replicate 2) is 60.9383.

Take `C[C@]12CC[C@@H](O)C[C@@H]1CC[C@@H]1[C@@H]2CC[C@]2(C)[C@@H](O)CC[C@@H]12` [5alpha-Androstane-3alpha,17beta-diol]: the “mean (LOPAC_screen_w_protease)” value under setting [23] was determined as 1.678. For the same compound, under setting [5], the “Replicate_1 (LOPAC_screen_w_protease)” value was 0.2579. The “Replicate_2 (LOPAC_screen_w_protease)” value under setting [6] worked out at 3.098.

Under setting [10], `OC[C@H]1O[C@@H](n2cnc3c(N[C@H]4CC5CCC4C5)ncnc32)[C@H](O)[C@@H]1O` (stereo partly drawn) [(S)-ENBA] showed a mean of 2.65. Further, the Replicate_1 under setting [11] is recorded as 4.26. Under setting [12], this compound returned a Replicate_2 of 1.041.

As to `Nc1nc(N)c2nc(CNc3ccc(C(=O)N[C@@H](CCC(=O)O)C(=O)O)cc3)cnc2n1` [Aminopterin], the inhibition at 5 µM was 2.12% under setting [21] and 1.52% under setting [22]. Also, under setting [4], the “mean (LOPAC_screen_w_protease)” value turned out to be 1.819.

For the compound `Cn1cnc([N+](=O)[O-])c1Sc1ncnc2nc[nH]c12` [Azathioprine], the “mean (LOPAC_screen_w_protease)” value was found to be 1.638. For the same compound, the inhibition at 5 µM under setting [19] turned out to be 1.71%. Also, the inhibition at 5 µM under setting [20] amounted to 1.57%.

Take `Cc1ccccc1N1C(=O)c2cc(S(N)(=O)=O)c(Cl)cc2NC1C` (stereo not drawn) [Metolazone]: the inhibition at 5 µM under setting [24] is 5.24%, the inhibition at 5 µM under setting [25] worked out at 4.55% and the inhibition at 5 µM under setting [26] was 5.92%.

On to `CC[C@H](C)C(=O)O[C@H]1CCC=C2C=C[C@H](C)[C@H](CC[C@@H]3C[C@@H](O)CC(=O)O3)[C@H]21` [Mevastatin], for which the inhibition at 5 µM turned out to be 4.58% under setting [24], 3.98% under setting [25] and 5.17% under setting [26].

Regarding “Phenylbenzene-omega-phosphono-alpha-amino acid”, the mean under setting [7] stood at 0.7227. The compound further registered a Replicate_1 under setting [8] of 0.6047. The same compound came in with a Replicate_2 under setting [9] of 0.8406.

`COC(=O)[C@@H](N)CCCN=C(N)N[N+](=O)[O-].Cl` had a mean under setting [13] of 3.268. Further, under setting [14], the Replicate_1 is given as 2.366. The same compound displayed a Replicate_2 under setting [15] of 4.171.

As for `CCCn1cnc2c1c(=O)n(CCCCC(C)=O)c(=O)n2C` [Propentofylline], the inhibition at 5 µM (sheet LOPAC_screen_w_protease, LOPAC1280 at 5 µM, mean of two replicates, read-out: mean) was 1.26%; the inhibition at 5 µM (sheet LOPAC_screen_w_protease, LOPAC1280 at 5 µM, replicate 1, read-out: Replicate_1) turned out to be 2.2%; the inhibition at 5 µM (sheet LOPAC_screen_w_protease, LOPAC1280 at 5 µM, replicate 2, read-out: Replicate_2) turned out to be 0.327%.

Turning to `Cl.NCCc1ccc(O)cc1` [4-Hydroxyphenethylamine hydrochloride], the mean under setting [7] is 0.878. The same compound had a Replicate_1 under setting [8] of 0.5582. Further, the Replicate_2 under setting [9] was found to be 1.1978.
